Results on six compounds are retold here after patent US5449667A, “Amidothiophosphate derivative and insecticide, nematocide and acaricide containing the same as active ingredient” (priority 1993, dated 1995).

Data set [1] is described as follows: Acute toxicity in oral application to mice. The note with it: mouse, in vivo, ICR male mice, after seven days. Here is the method:
Biological Test 9 Acute Toxicity in Oral Application to Mice
Each of the present compound was diluted with corn oil to a predetermined concentration. After subjecting the mice to a twenty-hour fasting, 0.1 ml of the diluted solution per 10 g weight was forcibly applied into the stomach of each ICR male 6-week old mouse (weight: 24 to 31 g). The mice were given food and water four hours after the application and thereafter regularly fed and watered, and kept in a cage. After seven days, the mortality was examined for the mice (4 mice/group).

The test system of data set [2] is Tetranychus cinnabarinus. Kind of data set: Activity against Tetranychus cinnabarinus. The format is in vivo. Further details: key: -: substantially no damage; +: little damage; ++: heavy damage. The note with it: 500 ppm, 15 ml spray plus 2 ml soil injection, kidney bean, after eight days. How it is done:
Biological Test 8 Activity Against Tetranychus cinnabarinus
Ten male mites (Tetranychus cinnabarinus) per leaf were placed on a pot-planted kidney bean (Phasseolus vulgaris: seven days after sowing) and kept in a thermostatic chamber. After six days, 15 ml of a 500 ppm aqueous solution obtained by diluting each emulsifiable concentrate of each of the present compounds according to the formulation example 1 was sprayed in a pot simultaneously with injection of 2 ml of the solution into soil. After eight days, damage to the plant by Tetranychus cinnabarinus was evaluated according to the following criteria:
-: substantially no damage

Data set [3] has as its system Blattella germanica. Description: Insecticidal activity against Blattella germanica. The data set is classed as in vivo. The conditions noted are these: 24 h, 0.7 ml of 500 ppm on filter paper, ten male cockroaches, after one day. Here is the method:
Biological Test 3 Insecticidal Avtivity Against Blattella germanica
Filter paper of 5.5 cm in diameter was laid in the bottom of a polyethylene cup (diameter: 5.5 cm). After 0.7 ml of a 500 ppm aqueous solution obtained by diluting each emulsifiable concentrate prepared from each of the present compounds according to the formulation example 1 was dropped on the filter paper and approximately 30 mg of sucrose was uniformly scattered and put on the filter paper as bait, ten male cockroaches (Blattella germanica) were left in the cup with a cover. After one day, the mortality was examined for the cockroaches.

Data set [4] deals with Musca domestica. Description: Insecticidal activity against Musca domestica. The note with it: 24 h, 0.7 ml of 500 ppm on filter paper, ten female house flies, after one day. The format is in vivo. How it is done:
Biological Test 4 Insecticidal Activity Against Musca domestica
Filter paper of 5.5 cm in diameter was laid in the bottom of a polyethylene cup (diameter: 5.5 cm). After 0.7 ml of a 500 ppm aqueous solution obtained by diluting each emulsifiable concentrate prepared from each of the present compounds according to the formulation example 1 was dropped on the filter paper and approximately 30 mg of sucrose was uniformly scattered, and put on the filter paper as bait, ten female house flies (Musca domestica) were left in the cup with a cover. After one day, the mortality was examined for the flies.

Data set [5] relates to larvae of Culex pipiens pallens. Kind of data set: Insecticidal activity against larvae of Culex pipiens pallens. The data set is classed as in vivo. The note with it: 3.5 ppm active ingredient in water, twenty last-instar larvae, after one day. Here is the method:
Biological Test 7 Insecticidal Activity Against Larvae of Culex pipiens pallens
Each of emulsifiable concentrates prepared from each of the present compounds according to the formulation example 1 was diluted with water, and 0.7 ml of the diluted solution was added to 100 ml of ion-exchanged water (concentration of active ingredient: 3.5 ppm). Twenty last-instar larvae of Culex pipiens pallens were left in the water. After one day, the activity was evaluated according to the following criteria:
A: Mortality not less than 90%
B: Mortality not less than 10% but less than 90%
C: Mortality less than 10%

The test system of data set [6] is larvae of Diabrotica undecimpunctata. Kind of data set: Insecticidal activity against larvae of Diabrotica undecimpunctata. The format is in vivo. The conditions noted are these: 1 ml of 50 ppm on filter paper, approximately thirty eggs, after eight days. How it is done: Biological Text 5 Insecticidal Activity Against Larvae of Diabrotica undecimpunctata
Filter paper of 5.5 cm in diameter was laid in the bottom of a polyethylene cup (diameter: 5.5 cm). After 1 ml of a 50 ppm aqueous solution obtained by diluting each of the emulsifiable concentrate prepared from each of the present compounds according to the formulation example 1 was dropped on the filter paper and one sprouting corn crop was placed as bait on the paper, approximately thirty eggs of Diabrotica undecimpunctata were left on the filter paper. After eight days, the rate of hatched larvae was examined. The activity were evaluated according to the following criteria:
B: Mortality not less than 90% but less than 100%
C: Mortality less than 90%

For data set [7], the system named is larvae of Spodoptera litura. Kind of data set: Insecticidal activity against larvae of Spodoptera litura. The data set is classed as in vivo. The note with it: 144 h, 4-instar larvae, artificial bait, after six days. How it is done:
Biological Test 1 Insecticidal Activity Against Larvae of Spodoptera litura
Emulsifiable concentrates were prepared for each of the present compounds according to the formulation example 1. Thirteen grams of artificial bait for Spodoptera litura were placed in a polyethylene cup (diameter: 11 cm) and impregnated with 2 ml of the emulsifiable concentrate diluted with water (500 ppm). Ten 4-instar larvae of Spodoptera litura were put in the polyethylene cup. After six days, the mortality of the larvae was examined.

Data set [8] relates to root-knot nematodes. Description: Activity against root-knot nematodes. The format is in vivo. Set-up: key: -: substantially no root knots; +: several to ten odds root knots; ++: larger number of root knots (heavier damage than +). The note with it: 25 ppm active ingredient in soil, tomato root, after four weeks. How it is done:
Biological Test 6 Activity Against Root-knot Nematodes
One ml of a 500 ppm aqueous solution of each of the present compounds obtained by diluting each emulsifiable concentrate prepared from each of the present compounds according to the formulation example 1 was mixed with 19 g of soil contaminated with root-knot nematodes (concentration of active ingredient in soil: 25 ppm). After the soil was kept at 27° C. for 24 hours, the root of a tomato plant (approximately two weeks after sprouting) in a cup was covered with the soil and some water was given to the plant. After four weeks, damage to the root of the tomato plant was evaluated according to the following criteria:
-: substantially no root knots
+: several to ten odds root knots
++: larger number of root knots (heavier damage than +)

In data set [9] the test system is larvae of Nilaparvata lugens. Description: Insecticidal activity against larvae of Nilaparvata lugens. The format is in vivo. The conditions noted are these: 500 ppm aqueous solution, rice stalk dip, approximately 30 larvae, after six days. Here is the method: Biological Test 2 Insecticidal Activity Against Larvae of Nilaparvata lugens
A stalk of a rice plant was dipped for one minute in a 500 ppm aqueous solution obtained by diluting each emulsifiable concentrate prepared from each of the present compounds according to the formulation example 1 and then air-dried. The rice plant stalk was placed in a polyethylene cup (diameter: 5.5 cm) where filter paper (diameter: 5.5 cm) impregnated with 1 ml of water was put. Approximately 30 larvae of Nilaparvata lugens were put in the polyethylene cup. After six days, the activity was evaluated according to the following criteria:
B: the number of the living larvae is not greater than 5
C: the number of the living larvae is 6 or more

In the case of `CCC(C)SP(=O)(NC)OC` (centres unmarked) [A, reference compound], in data set [1] (5 mg/kg), the mortality – broadly, the share of the test organisms that died – at 168 h is 100%.
`CCOP(=O)(SC(C)CC)N(CCC#N)C(=O)SC` (centres unmarked) [Compound 13]: the Activity result in [2] is on record as “-”; in [5] it was “A (Mortality not less than 90%)”; in data set [6], “A (Mortality 100%)”; in [8], “-”. Also, the mortality at 500 ppm in data set [3], in data set [4] and in [7] was 100% each time. In [1] (30 mg/kg), this compound returned a mortality at 168 h of 0%.
Regarding `CCOP(=O)(SC(C)CC)N(CC#N)C(=O)OC` (centres unmarked) [Compound 9, O-ethyl S-sec-butyl N-cyanomethyl N-methoxycarbonyl phosphoroamidothiolate], the Activity result in [2] was “-”; in data set [5], “A (Mortality not less than 90%)”; in [6] it was “A (Mortality 100%)”; in data set [8], “-”. Besides, the mortality at 500 ppm in data set [3], in [4] and in data set [7] was 100% each time. In data set [1] (30 mg/kg), the mortality at 168 h came out at 0%.
For `CCCSP(=O)(OC)N(CC#N)C(=O)OCC` (centres unmarked) [Compound 2], the Activity result in [2] is given as “-”; in data set [9], “A (no living larvae)”; in data set [5], “A (Mortality not less than 90%)”; in [6], “A (Mortality 100%)”; in [8], “-”. Moreover, the mortality at 500 ppm in data set [3], in data set [4] and in data set [7] was 100% throughout.
As for `CCC(C)SP(=O)(OC)N(CC#N)C(=O)OC` (centres unmarked) [Compound 4], the Activity entry is reported as “-” in [2]; “A (no living larvae)” in [9]; “A (Mortality not less than 90%)” in [5]; “A (Mortality 100%)” in data set [6]; “-” in data set [8]. Further, the mortality at 500 ppm in [3], in [4] and in data set [7] was 100% throughout.
In the case of `CCOC(=O)N(CC#N)P(=O)(OC)SC(C)CC` (centres unmarked) [Compound 6], the Activity result in [2] is on record as “-”; in data set [9] it was “A (no living larvae)”; in [5] it was “A (Mortality not less than 90%)”; in [6], “A (Mortality 100%)”; in data set [8], “-”. Also, the mortality at 500 ppm in data set [3], in data set [4] and in data set [7] was 100% in each case.
